In patent US10670605B2, “Cysteine reactive probes and uses thereof” (The Scripps Research Institute, priority 2015, dated 2020):

Legend:
Assay in all cases: Competitive isoTOP-ABPP in situ (fragment-treated cells)
Format in all cases: cell-based
[1] = target: T1, cysteines in MDA-MB-231 and Ramos cells (Homo sapiens, UniProt O95336); details: 200 μM, insitu
T1 sequence (O95336 1-258): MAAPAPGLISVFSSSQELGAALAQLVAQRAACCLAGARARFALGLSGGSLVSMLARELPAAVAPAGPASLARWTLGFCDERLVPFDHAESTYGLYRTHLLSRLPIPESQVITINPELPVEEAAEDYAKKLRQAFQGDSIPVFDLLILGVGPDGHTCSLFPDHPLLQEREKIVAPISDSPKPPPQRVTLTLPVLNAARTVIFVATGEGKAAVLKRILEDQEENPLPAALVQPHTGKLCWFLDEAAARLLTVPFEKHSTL

[2] = target: cysteines in MDA-MB-231 and Ramos cells (Homo sapiens, UniProt P15121); details: 200 μM, insitu, ramos
[3] = target: T2, cysteines in MDA-MB-231 and Ramos cells (Homo sapiens, UniProt P31943); details: 200 μM, insitu
T2 sequence (P31943 1-449): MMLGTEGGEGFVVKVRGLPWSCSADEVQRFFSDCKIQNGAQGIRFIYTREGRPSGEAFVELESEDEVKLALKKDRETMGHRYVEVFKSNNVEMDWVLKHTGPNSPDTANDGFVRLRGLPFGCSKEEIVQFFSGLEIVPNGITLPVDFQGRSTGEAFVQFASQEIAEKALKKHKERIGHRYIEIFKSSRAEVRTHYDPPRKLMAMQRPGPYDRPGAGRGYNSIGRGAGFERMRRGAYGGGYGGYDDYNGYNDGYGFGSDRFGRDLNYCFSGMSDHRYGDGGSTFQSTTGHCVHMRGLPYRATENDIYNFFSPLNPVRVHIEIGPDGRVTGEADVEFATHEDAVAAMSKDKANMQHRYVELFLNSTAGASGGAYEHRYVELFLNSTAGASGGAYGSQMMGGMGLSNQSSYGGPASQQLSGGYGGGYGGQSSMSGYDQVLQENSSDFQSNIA

[4] = target: T3, cysteines in MDA-MB-231 and Ramos cells (Homo sapiens, UniProt Q13155); details: 200 μM, insitu
T3 sequence (Q13155 1-320): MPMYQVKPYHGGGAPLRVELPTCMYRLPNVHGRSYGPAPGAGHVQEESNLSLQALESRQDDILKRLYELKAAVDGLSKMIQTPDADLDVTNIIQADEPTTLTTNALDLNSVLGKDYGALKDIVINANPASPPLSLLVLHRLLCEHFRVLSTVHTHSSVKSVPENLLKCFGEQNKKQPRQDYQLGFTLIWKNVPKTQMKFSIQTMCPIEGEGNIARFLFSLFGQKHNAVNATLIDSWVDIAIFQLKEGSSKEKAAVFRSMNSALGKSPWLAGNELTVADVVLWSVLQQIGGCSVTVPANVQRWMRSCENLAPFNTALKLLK

[5] = target: cysteines in MDA-MB-231 and Ramos cells (Homo sapiens, UniProt Q13526); details: 200 μM, insitu
[6] = target: cysteines in MDA-MB-231 and Ramos cells (Homo sapiens, UniProt Q15365); details: 200 μM, insitu
[7] = target: cysteines in MDA-MB-231 and Ramos cells (Homo sapiens, UniProt Q93009); details: 200 μM, insitu, ramos
[8] = target: T4, cysteines in MDA-MB-231 and Ramos cells (Homo sapiens, UniProt Q9NVC6); details: 200 μM, insitu
T4 sequence (Q9NVC6 1-651): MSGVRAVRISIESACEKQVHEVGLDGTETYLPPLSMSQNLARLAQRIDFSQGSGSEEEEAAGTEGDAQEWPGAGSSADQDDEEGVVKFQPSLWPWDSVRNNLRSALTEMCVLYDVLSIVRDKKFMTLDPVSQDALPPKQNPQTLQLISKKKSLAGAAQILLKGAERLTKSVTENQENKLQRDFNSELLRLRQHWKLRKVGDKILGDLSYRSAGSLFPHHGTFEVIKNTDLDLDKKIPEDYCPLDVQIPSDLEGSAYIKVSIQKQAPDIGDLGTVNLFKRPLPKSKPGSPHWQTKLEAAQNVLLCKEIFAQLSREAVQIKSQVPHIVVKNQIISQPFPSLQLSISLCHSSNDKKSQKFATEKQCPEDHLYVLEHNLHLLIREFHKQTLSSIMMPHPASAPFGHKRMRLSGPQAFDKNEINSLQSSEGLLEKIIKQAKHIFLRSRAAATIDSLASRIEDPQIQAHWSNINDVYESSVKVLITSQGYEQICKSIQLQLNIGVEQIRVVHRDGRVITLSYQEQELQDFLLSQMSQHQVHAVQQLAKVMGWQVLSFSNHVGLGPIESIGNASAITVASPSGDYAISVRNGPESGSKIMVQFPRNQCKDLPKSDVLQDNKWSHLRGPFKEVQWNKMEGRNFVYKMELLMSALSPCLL

[9] = target: T5, cysteines in MDA-MB-231 and Ramos cells (Homo sapiens, UniProt Q9Y3D0); details: 200 μM, insitu, ramos
T5 sequence (Q9Y3D0 1-163): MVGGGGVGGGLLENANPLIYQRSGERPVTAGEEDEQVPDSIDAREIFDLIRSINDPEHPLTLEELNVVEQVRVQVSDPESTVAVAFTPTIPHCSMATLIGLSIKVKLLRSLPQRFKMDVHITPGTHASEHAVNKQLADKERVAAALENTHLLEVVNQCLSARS

Sequence of cysteines in MDA-MB-231 and Ramos cells (Homo sapiens, UniProt Q13526) (Q13526 whole entry): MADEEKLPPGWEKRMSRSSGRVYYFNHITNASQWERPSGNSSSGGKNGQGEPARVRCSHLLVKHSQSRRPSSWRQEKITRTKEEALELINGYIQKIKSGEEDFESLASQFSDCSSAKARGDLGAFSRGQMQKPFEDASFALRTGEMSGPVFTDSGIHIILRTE
Sequence of cysteines in MDA-MB-231 and Ramos cells (Homo sapiens, UniProt Q15365) (Q15365 whole entry): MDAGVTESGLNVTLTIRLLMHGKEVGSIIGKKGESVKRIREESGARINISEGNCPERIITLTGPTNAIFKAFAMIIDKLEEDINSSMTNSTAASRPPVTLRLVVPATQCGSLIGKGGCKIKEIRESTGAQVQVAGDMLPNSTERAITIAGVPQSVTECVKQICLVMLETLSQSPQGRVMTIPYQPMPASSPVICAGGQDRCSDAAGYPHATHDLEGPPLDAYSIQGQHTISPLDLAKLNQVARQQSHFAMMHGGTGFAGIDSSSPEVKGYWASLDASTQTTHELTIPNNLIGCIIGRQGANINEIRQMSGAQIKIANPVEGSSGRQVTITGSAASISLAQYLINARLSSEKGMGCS
Sequence of cysteines in MDA-MB-231 and Ramos cells (Homo sapiens, UniProt Q93009) (Q93009 whole entry): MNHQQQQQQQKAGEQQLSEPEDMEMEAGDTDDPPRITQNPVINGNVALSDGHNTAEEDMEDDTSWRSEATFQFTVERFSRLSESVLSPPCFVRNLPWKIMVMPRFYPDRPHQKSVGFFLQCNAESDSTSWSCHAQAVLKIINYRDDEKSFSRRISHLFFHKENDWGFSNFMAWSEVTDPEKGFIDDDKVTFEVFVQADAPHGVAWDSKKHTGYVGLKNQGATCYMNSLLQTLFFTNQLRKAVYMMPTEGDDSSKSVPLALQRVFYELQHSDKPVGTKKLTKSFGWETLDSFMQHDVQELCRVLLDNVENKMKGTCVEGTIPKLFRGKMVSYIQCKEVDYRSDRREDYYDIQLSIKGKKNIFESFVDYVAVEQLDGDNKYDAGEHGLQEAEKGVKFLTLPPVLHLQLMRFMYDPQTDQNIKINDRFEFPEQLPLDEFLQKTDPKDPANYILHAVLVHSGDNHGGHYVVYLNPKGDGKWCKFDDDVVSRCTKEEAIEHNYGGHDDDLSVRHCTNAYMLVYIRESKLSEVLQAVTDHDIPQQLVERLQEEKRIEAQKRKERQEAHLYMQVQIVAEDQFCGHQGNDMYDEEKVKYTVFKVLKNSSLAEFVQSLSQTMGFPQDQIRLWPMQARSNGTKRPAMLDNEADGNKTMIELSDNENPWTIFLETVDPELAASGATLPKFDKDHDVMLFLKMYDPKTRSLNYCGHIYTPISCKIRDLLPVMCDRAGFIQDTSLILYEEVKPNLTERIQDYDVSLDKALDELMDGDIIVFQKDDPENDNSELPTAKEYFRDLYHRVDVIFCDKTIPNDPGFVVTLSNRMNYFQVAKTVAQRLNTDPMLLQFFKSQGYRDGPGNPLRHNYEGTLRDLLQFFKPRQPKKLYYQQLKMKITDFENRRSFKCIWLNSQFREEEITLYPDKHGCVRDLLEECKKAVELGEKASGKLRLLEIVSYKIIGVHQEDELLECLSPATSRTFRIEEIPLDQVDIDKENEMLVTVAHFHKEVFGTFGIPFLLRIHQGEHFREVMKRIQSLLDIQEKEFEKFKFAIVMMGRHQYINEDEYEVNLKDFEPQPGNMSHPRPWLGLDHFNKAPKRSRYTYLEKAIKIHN

isoTOP-ABPP ratio O95336_C32 [1]; 231	isoTOP-ABPP ratio O95336_C32 ([1]; ramos)	isoTOP-ABPP ratio P15121_C299 [2]	isoTOP-ABPP ratio P31943_C267 [3]; 231	isoTOP-ABPP ratio P31943_C267 ([3]; ramos)	isoTOP-ABPP ratio Q13155_C23 [4]; 231	isoTOP-ABPP ratio Q13526_C113 [5]; 231	isoTOP-ABPP ratio Q13526_C113 ([5]; ramos)	isoTOP-ABPP ratio Q15365_C194 [6]; 231	isoTOP-ABPP ratio Q15365_C194 ([6]; ramos)	isoTOP-ABPP ratio Q93009_C223 [7]	isoTOP-ABPP ratio Q9NVC6_C649 [8]; 231	isoTOP-ABPP ratio Q9NVC6_C649 ([8]; ramos)	isoTOP-ABPP ratio Q9Y3D0_C93 [9]	isoTOP-ABPP ratio Q13155_C23 ([4]; ramos)	SMILES
1.6	2.2	0.8	1.1	1.2	0.9	0.9	1.0	0.9	1.4	1.3	1.1	1.0	1.4	–	O=C(CCl)NCCc1c[nH]c2ccccc12 [compound 13]
–	3.0	1.1	–	1.4	–	–	1.0	–	1.0	1.0	–	1.6	1.0	1.6	O=C(CCl)N1CCN(CC(=O)N2CCOCC2)CC1 [compound 29]
